Values after ≈ are worked out from the molar mass of the structure shown.

These results are taken from ChEMBL document CHEMBL1770098, “Pyridine-derived thiosemicarbazones and their tin(IV) complexes with antifungal activity against Candida spp” (2011).

Holding throughout (assay type): functional
One test deals with Pichia kudriavzevii. The test can be described thus: Antifungal activity against Candida krusei ATCC 200298 after 24 hrs. The note with it: ATCC 200298, 24 h.
The next test concerns Candida albicans. Put plainly: Antifungal activity against Candida albicans ATCC 18804 after 24 hrs. The note with it: ATCC 18804, 24 h.
Another test deals with Nakaseomyces glabratus. The test can be described thus: Antifungal activity against Candida glabrata ATCC 90030 after 24 hrs. The note with it: ATCC 90030, 24 h.
The next test deals with Candida parapsilosis. The test can be described thus: Antifungal activity against Candida parapsilosis […] after 24 hrs. The note with it: Lodderomyces parapsilosis.

As a reminder, the MIC is the least concentration at which growth counts as inhibited. A high value points to weaker potency. As for `Fc1ccccc1NC(=S)N/N=C(\c1ccccc1)c1ccccn1`, the MIC in the test with Pichia kudriavzevii stood at 45.7 µM (≈ 16 µg/mL); in the test with Candida albicans it was 45.7 µM (≈ 16 µg/mL); with Nakaseomyces glabratus it was 11.4 µM (≈ 4 µg/mL); with Candida parapsilosis, 45.7 µM (≈ 16 µg/mL).
For the molecule `C/C(=N\NC(=S)Nc1ccccc1[N+](=O)[O-])c1ccccn1`, the minimal inhibitory concentration (MIC) in the test with Pichia kudriavzevii, in the test with Candida albicans, in the test with Nakaseomyces glabratus and against Candida parapsilosis was 6.34 µM (≈ 2 µg/mL) each time.
`C/C(=N\NC(=S)Nc1ccccc1F)c1ccccn1`: the MIC in the test with Pichia kudriavzevii is 13.9 µM (≈ 4 µg/mL); against Candida albicans, 13.9 µM (≈ 4 µg/mL); with Nakaseomyces glabratus, 6.94 µM (≈ 2 µg/mL); in the test with Candida parapsilosis, 27.7 µM (≈ 8 µg/mL).
As to `S=C(N/N=C(\c1ccccc1)c1ccccn1)Nc1ccccc1Cl`, the minimum inhibitory concentration (MIC) with Pichia kudriavzevii turned out to be 21.8 µM (≈ 8 µg/mL); in the test on Candida albicans, 21.8 µM (≈ 8 µg/mL); against Nakaseomyces glabratus it was 21.8 µM (≈ 8 µg/mL); in the test on Candida parapsilosis, 43.6 µM (≈ 16 µg/mL).
In the case of `OC(Cn1cncn1)(Cn1cncn1)c1ccc(F)cc1F` [FLUCONAZOLE], the minimum inhibitory concentration (MIC) was 104 µM (≈ 32 µg/mL) against Pichia kudriavzevii, 6.53 µM (≈ 2 µg/mL) against Candida albicans, 6.53 µM (≈ 2 µg/mL) against Nakaseomyces glabratus and 6.53 µM (≈ 2 µg/mL) with Candida parapsilosis.
`O=[N+]([O-])c1ccccc1NC(=S)N/N=C(\c1ccccc1)c1ccccn1`: the minimum inhibitory concentration (MIC) is 21.2 µM (≈ 8 µg/mL) with Pichia kudriavzevii, 21.2 µM (≈ 8 µg/mL) against Candida albicans, 21.2 µM (≈ 8 µg/mL) with Nakaseomyces glabratus and 42.4 µM (≈ 16 µg/mL) in the test on Candida parapsilosis.
`C/C(=N\NC(=S)Nc1ccccc1Cl)c1ccccn1`: the MIC against Pichia kudriavzevii stood at 13.1 µM (≈ 4 µg/mL); with Candida albicans it was 13.1 µM (≈ 4 µg/mL); against Nakaseomyces glabratus, 13.1 µM (≈ 4 µg/mL); against Candida parapsilosis it was 26.2 µM (≈ 8 µg/mL).
